Columns and labels:
[1] = test system: transient focal Middle Cerebral Artery Occlusion/Reperfusion model (MCAO/R model); experiment: Neurobehavioral evaluation (Bederson classification) after MCAO/R; conditions: Bederson Grade 0-4, SD rat, 50 mg/kg intraperitoneal, vehicle group 2.80
[2] = test system: transient focal Middle Cerebral Artery Occlusion/Reperfusion model (MCAO/R model); experiment: Evaluation of the effect of preventing nerve damage: total infarct volume (TTC staining) in MCAO/R model; type: in vivo, male Sprague Dawley rat; conditions: SD rat, 50 mg/kg intraperitoneal once 10 minutes before MCAO/R; 1 hour ischemia, 24 hours blood reperfusion; vehicle group 40.48
Procedure: Besides the foresaid experimental groups, only pure solvent used was treated as vehicle group, and a sham group, which was not administrated with any compound or solvent or with nylon monofilament to cause obstruction and ischemia, was also included. In this test example, transient focal Middle Cerebral Artery Occlusion/Reperfusion model (MCAO/R model) was adopted to simulate ischemic stroke for evaluating the subsequent nerve damage. Specifically, male Sprague Dawley rat (SD rat) was adopted and anaesthetized with 2% isoflurane, and then the right common carotid artery, external carotid artery and internal carotid artery were distinguished among them from the neck. Next, a nylon monofilament with length of 22 millimeters (mm), size number of 4/0 and capped with polysiloxane was inserted into the external carotid artery and along with the […] to the circle of Willis to induce obstruction and ischemia in the middle cerebral artery. After causing obstruction and ischemia for 1 hour, the nylon monofilament was removed to allow the blood recirculated to the brain, in other words, to undergo blood reperfusion. After blood reperfusion for 24 hours, the rat was sacrificed and the brain thereof was placed into a cooled 0.95% saline. […] Afterward, the sliced brain tissues were stained with a 4% […] solution, and then MacroPATH Digital Imaging System was used to record the images and the obtained images were analyzed by ImageJ 1.52a to count the infarct volume percent, which could represent the degree of nerve damage. The foresaid infarct volume percent was obtained by adding the values acquired by multiplying the proportion of infarct area of each sliced brain tissue with their thickness, and the proportion of infarct area was calculated by the equation: (B−A)/B×100%; wherein, “A” represented the undamaged area in the damaged cerebral hemisphere on the right side, and “B” represented the total area of the undamaged cerebral hemisphere on the left side. […]

Compound | Grade (neurobehavioral evaluation), time point of 0.5-hour after blood reperfusion [1] | Grade (neurobehavioral evaluation), time point of 1.5-hour after blood reperfusion [1] | Total infarct volume percent (%) [2] [%] | Grade (neurobehavioral evaluation), time point of 24-hour after blood reperfusion ([1]; 24 hour after blood reperfusion)
COc1cc(CC=C(C)C)c(OC)c2c1OCO2 [Example 4] | 2.60 | 2.60 | 16.4 | –
COc1cc(COC(C)=O)c(OC)c2c1OCO2 [Example 3] | 2.80 | 2.60 | 17.13 | –
COc1c(C)c(CC=C(C)C)c(OC)c2c1OCO2 [Example 1] | 2.60 | 2.80 | 28.82 | 2.60
